Assay results reported in US7837991B2, “Method of cancer treatment by p53 protein control” (Aventis Pharma, S.A., priority 1994, dated 2010).

T1: bovine m-calpain (Bos taurus, UniProt Q27971)
T1 construct: purchased Sigma
T1 sequence (Q27971 20-700 limits assumed): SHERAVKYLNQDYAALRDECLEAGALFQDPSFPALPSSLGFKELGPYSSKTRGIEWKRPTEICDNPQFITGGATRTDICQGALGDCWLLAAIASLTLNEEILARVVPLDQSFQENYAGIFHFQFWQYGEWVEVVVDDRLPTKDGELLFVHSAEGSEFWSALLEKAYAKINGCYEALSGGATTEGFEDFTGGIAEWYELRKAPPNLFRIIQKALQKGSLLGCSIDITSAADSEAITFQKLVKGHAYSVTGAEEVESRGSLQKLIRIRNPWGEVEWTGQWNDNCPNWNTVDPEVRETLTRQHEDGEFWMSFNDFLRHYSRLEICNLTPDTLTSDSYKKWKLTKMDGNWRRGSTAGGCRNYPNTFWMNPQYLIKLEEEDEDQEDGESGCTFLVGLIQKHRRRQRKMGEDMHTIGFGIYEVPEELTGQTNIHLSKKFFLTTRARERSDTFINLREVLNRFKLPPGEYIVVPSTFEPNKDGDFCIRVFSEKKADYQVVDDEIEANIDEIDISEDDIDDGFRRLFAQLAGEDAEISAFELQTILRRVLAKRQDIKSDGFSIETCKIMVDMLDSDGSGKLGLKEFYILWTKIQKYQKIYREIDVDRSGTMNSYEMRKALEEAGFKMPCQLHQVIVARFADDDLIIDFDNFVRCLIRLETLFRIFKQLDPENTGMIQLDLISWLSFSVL
T1 sequence (P13135 1-263 partner): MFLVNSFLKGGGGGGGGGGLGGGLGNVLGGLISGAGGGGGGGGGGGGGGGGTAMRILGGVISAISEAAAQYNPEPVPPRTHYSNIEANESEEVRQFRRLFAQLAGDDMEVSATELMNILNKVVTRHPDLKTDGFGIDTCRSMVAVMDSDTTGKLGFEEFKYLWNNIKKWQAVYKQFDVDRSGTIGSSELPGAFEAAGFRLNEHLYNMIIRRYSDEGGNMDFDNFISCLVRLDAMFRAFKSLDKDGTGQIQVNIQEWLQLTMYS

B1: soybean trypsin inhibitor (protein, UniProt P01070 25-205, looked up)
Trypsin inhibitor A: DFVLDNEGNPLENGGTYYILSDITAFGGIRAAPTGNERCPLTVVQSRNELDKGIGTIISSPYRIRFIAEGHPLSLKFDSFAVIMLCVGIPTEWSVVEDLPEGPAVKIGENKDAMDGWFRLERVSDDEFNNYKLVFCPQQAEDDKCGDIGISIDHDDGTRRLVVSKNKPLVVQFQKLDKESL

Assays:
[1] = tested on: calpains of the cytoplasmic extract; experiment: Degradation of p53 proteins by endogenous calpains in cytoplasmic extracts of Daudi or Jurkat cells; format: biochemical, human; settings: in the presence of calcium
Method: 2.1. Degradation by the endogenous calpains: mouse and human wild-type p53 proteins, as well as certain mutated forms (cf Example 1) were translated in the reticulocyte lysate and were then incubated in the presence of cytoplasmic extracts of Daudi or Jurkat human lymphoblastoid cells. The cytoplasmic extracts were prepared in the following manner: the cells (available at the ATCC) were cultured in DMEM medium supplemented with 10% foetal calf serum. The cells were then harvested, washed in PBS buffer and then incubated for 5 min in a detergent-free hypotonic lysis buffer (HEPES 20 mM, pH 7.5; KOAc 10 mM; MgOAc 1.5 mM; 2 ml per 5×10^8 cells). The lysis was completed using a Dounce homogenizer and then checked under a microscope. The nuclei were then removed by centrifugation at 2000 g for 5 min, and the supernatants were centrifuged at 10,000 g for 1 hour (Beckman SW60). The cytoplasmic extracts were then aliquoted in an amount of 5 to 12 mg/ml.

[2] = biological target: T1, bovine m-calpain; experiment: Degradation of p53 proteins by exogenous m-calpain in rabbit reticulocyte lysate; format: biochemical; settings: m-calpain plus calcium, mouse and human wild-type and mutated p53
From the text: 1.1. […] The proteins thus obtained are resistant to any degradation, even in the presence of a high concentration of calcium (cofactor essential for the calpains). The addition of bovine m-calpain (Sigma) to the reticulocyte lysate in the presence of calcium led to the rapid disappearance of the neosynthesized proteins and the appearance of proteolytic fragments which are resolvable by electrophoresis. The degradation resistance of other proteins such as dihydrofolate reductase or glyceraldehyde-3-phosphate dehydrogenase under the same experimental conditions indicates the substrate specificity of the reaction.
1.2. Use of inhibitors of calpain for modulating the levels of p53 proteins: in the above Example 1.1., it was shown that the addition of m-calpain induced degradation of the p53 proteins. In this example, in addition to m-calpain, various compounds were introduced into the medium in order to test their capacity to inhibit the activity of calpain.

Molecule | effect on calcium-dependent degradation of p53 proteins in cytoplasmic extracts [1] | inhibition of the degradation of the p53 proteins induced by the exogenous calpain [2]
CC(=O)N[C@@H](CC(C)C)C(=O)N[C@@H](CC(C)C)C(=O)N[C@H](C=O)CCCNC(=N)N [leupeptin] | show that the degradation of these proteins is dependent on the calpains | –
O=C(O)CN(CCOCCOCCN(CC(=O)O)CC(=O)O)CC(=O)O [EGTA] | – | capable of inhibiting the degradation of the p53 proteins
O=S(=O)(F)Cc1ccccc1 [PMSF] | show that the degradation of these proteins is dependent on the calpains | –
aprotinin | show that the degradation of these proteins is dependent on the calpains | –
B1 | show that the degradation of these proteins is dependent on the calpains | –
